Results from the supplement of paper PMC12420376.

What was measured:
[1] = tested on: OVCAR8; test: drug sensitivity score (DSS2) on cancer cell count; higher = more sensitive; extreme values may be limits of the assay; details: 72 h
Procedure, shortened: (§1)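 Ovarian cancer cells were grown alone or in 1:1 direct co-culture with lung or skin fibroblasts. They were plated onto 384-well plates pre-spotted acoustically with 528 approved and investigational compounds at 5 concentrations, then treated for 72 h. Cells were fixed, immunostained for CK8/18 with Hoechst, and imaged at 10× (4 fields) to count cancer cells. A drug sensitivity score (DSS2) was derived in Breeze from 4-parameter logistic fits, with screen quality checked by Z'.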

[2] = tested on: KURAMOCHI; test: as above; details: 72 h
Procedure, shortened: as §1

[3] = co-cultured fibroblast: BJHTERT
[4] = co-cultured fibroblast: none (monoculture)

Row | SMILES | drug sensitivity score [1, 3] [DSS] | drug sensitivity score ([1]; co-cultured fibroblast: WI38) [DSS] | drug sensitivity score [1, 4] [DSS] | drug sensitivity score [2, 3] [DSS] | drug sensitivity score ([2]; co-cultured fibroblast: WI38) [DSS] | drug sensitivity score [2, 4] [DSS]
1 | O=c1[nH]c(=O)n([C@H]2C[C@H](O)[C@@H](CO)O2)cc1C(F)(F)F [Trifluridine] | 5.2 | 2.7 | 9 | 5.4 | 9.2 | 7.4
2 | COC[C@H](NC(=O)c1cnc(C)s1)C(=O)N[C@@H](COC)C(=O)N[C@@H](Cc1ccccc1)C(=O)[C@@]1(C)CO1 [Oprozomib] | 17.7 | 12.7 | 10.8 | 15.7 | 15.1 | 12.6
3 | Cc1nc(=O)c2cc(CN(C)c3ccc(C(=O)N[C@@H](CCC(=O)O)C(=O)O)s3)ccc2[nH]1 [Raltitrexed] | 16.4 | 18.3 | 15.9 | 11.2 | 16.8 | 10.4
4 | CN(C)C[C@@H]1CCn2cc(c3ccccc32)C2=C(C(=O)NC2=O)c2cn(c3ccccc23)CCO1 [Ruboxistaurin] | 5.5 | 3.8 | 6.9 | 8.7 | 6.5 | 14.9
5 | NC(=O)c1cccc(-c2cccc(OC(=O)NC3CCCCC3)c2)c1 [URB597] | 0 | 0 | 0 | 0 | 0 | 0
6 | CCS(=O)(=O)Nc1ccc(Oc2ccc(F)cc2F)c(-c2cn(C)c(=O)c3[nH]ccc23)c1 [Mivebresib] | 35.4 | 26.9 | 30.9 | 22.6 | 21.7 | 17.5
7 | N#CC1(c2ccc(NC(=O)c3cccnc3NCc3ccncc3)cc2)CCCC1 [Apatinib] | 0 | 4.9 | 2.2 | 0 | 0 | 0
8 | CC(=O)N(O)CCCCCNC(=O)CCC(=O)N(O)CCCCCNC(=O)CCC(=O)N(O)CCCCCN [Deferoxamine] | 3.6 | 3.5 | 7.7 | 4.5 | 7.3 | 1.6
9 | CNC(=O)c1ccc(N2C(=S)N(c3ccc(C#N)c(C(F)(F)F)c3)C(=O)C2(C)C)cc1F [Enzalutamide] | 0 | 0 | 2.2 | 0 | 0 | 1.3
10 | C[C@]1(c2nc3c(C(N)=O)cccc3[nH]2)CCCN1 [Veliparib] | 5 | 3.1 | 0.5 | 0.4 | 0 | 0
11 | O=S(=O)(c1cccc2c(O)nccc12)N1CCCNCC1 [Hydroxyfasudil] | 0 | 1.2 | 0 | 0 | 1 | 2
12 | Nc1cccc2c1CN(C1CCC(=O)NC1=O)C2=O (stereo unspecified) [Lenalidomide] | 0 | 0 | 1.8 | 0.1 | 2.6 | 10.7
13 | Cc1ccc(=O)n(-c2ccccc2)c1 [Pirfenidone] | 0 | 0.7 | 0 | 1.8 | 0 | 0
14 | O[C@H](C[C@H]1c2c(F)cccc2-c2cncn21)[C@H]1CC[C@H](O)CC1 [GDC-0919] | 0 | 0 | 1.6 | 1.3 | 0 | 0
15 | O=C(O)CC1CC(c2ccccc2)=NO1 (stereo unspecified) [VGX-1027] | 0.3 | 0 | 0 | 0 | 0 | 0
16 | CCn1c(-c2nonc2N)nc2c(C#CC(C)(C)O)ncc(OC[C@H]3CCCNC3)c21 | 0.2 | 1.1 | 0.4 | 4.3 | 6.1 | 3.9
17 | CC1=C(/C=C/C(C)=C/C=C/C(C)=C/C(=O)O)C(C)(C)CCC1 [Tretinoin] | 0 | 0 | 0 | 0 | 0 | 8.2
18 | C1=N/C2=N/c3ccc(OCCN4CCCC4)c(c3)COC/C=C/COCc3cccc(c3)C(=C1)N2 [Pacritinib] | 9.5 | 5.6 | 7.7 | 8.2 | 8.6 | 4.4
19 | Cc1nc(Nc2ncc(C(=O)Nc3c(C)cccc3Cl)s2)cc(N2CCN(CCO)CC2)n1 [Dasatinib] | 13.6 | 21.9 | 21.9 | 18.4 | 17 | 20.4
20 | C#Cc1cccc(Nc2ncnc3cc4c(cc23)OCCOCCOCCO4)c1 [Icotinib] | 0.1 | 0 | 0 | 0 | 0.2 | 9.7
21 | CO[C@H]1C[C@@H]2CC[C@@H](C)[C@@](O)(O2)C(=O)C(=O)N2CCCC[C@H]2C(=O)O[C@H]([C@H](C)C[C@@H]2CC[C@@H](O)[C@H](OC)C2)CC(=O)[C@H](C)/C=C(\C)[C@@H](O)[C@@H](OC)C(=O)[C@H](C)C[C@H](C)/C=C/C=C/C=C/1C [Sirolimus] | 4.5 | 0 | 9.2 | 4.2 | 5 | 7.1
22 | Cc1nn(C)c(COc2ccc(N3CCN(S(=O)(=O)N(C)C)CC3)cc2)c1-c1cccc2c(CCCOc3cccc4ccccc34)c(C(=O)O)n(CCN3CCOCC3)c12 | 4.7 | 4 | 8.2 | 5.7 | 8.5 | 10.3
23 | CC[C@]1(O)C[C@@H]2CN(CCc3c([nH]c4ccccc34)[C@@](C(=O)OC)(c3cc4c(cc3OC)N(C)[C@H]3[C@@](O)(C(=O)OC)[C@H](OC(C)=O)[C@]5(CC)C=CCN6CC[C@]43[C@@H]65)C2)C1 [Vinblastine] | 18.9 | 5.2 | 15.7 | 4.9 | 4.2 | 20.8
24 | CC(C)c1c(C(=O)Nc2ccccc2)c(-c2ccccc2)c(-c2ccc(F)cc2)n1CC[C@@H](O)C[C@@H](O)CC(=O)O [Atorvastatin] | 4 | 11.7 | 6 | 3.1 | 2.1 | 1.9
25 | CC(=O)c1c(C)c2cnc(Nc3ccc(N4CCNCC4)cn3)nc2n(C2CCCC2)c1=O [Palbociclib] | 6.6 | 0.3 | 3.9 | 6.2 | 7.5 | 13.9
26 | CN(C(=O)c1ccc(F)cc1C(F)(F)F)C1CCN(c2nnc(-c3ccnn3C)c3ccccc23)CC1 [Taladegib] | 0 | 0 | 0 | 0 | 0 | 0
